Experimental findings from patent publication US20060040870A1, “Enhancement of apoptosis by caspase-9 inhibitors” (priority 2004, published 2006) are described below.

The subject of one assay is leukemia/lymphoma cells. Kind of assay: Pro-apoptotic activity of caspase inhibitor sequences (Table 2). The class given is cell-based. On the set-up: key: “−” is no activity; ++++ is maximum activity. The text has this:
Caspases are constitutively express in cells, and are usually in their pro-form. In response to an incident, such as irradiation or chemotherapy, the pro-form of the caspase is converted into the activated state. Certain compounds are known that can inhibit caspases. For example, the pan-caspase (PCi) VAD can block all caspases. […] For example, C2i inhibits caspase-2. This particular inhibitor is very dose dependent.

The subject of a further assay is BLIN-2 cells. Kind of assay: Apoptosis by Annexin V staining and flow cytometry, BLIN-2. Format: cell-based, human. To be noted: BLIN-2, 50 μM, 18 hours. Here is the method:
Flow cytometry. Quantitation of apoptotic events was conducted using a FACS Calibur (BD Immunocytometry Systems). All analyses were conducted on cells with lymphoid light scatter characteristics (i.e., low to medium forward scatter and low 90° side scatter).
iii. Annexin V. FITC-labeled Annexin V (BD Pharmingen, San Diego, Calif.) was used to detect external phosphatidylserine residues appearing on the external surface of early apoptotic cells (Koopman Blood. 1994;84:1415-1420). Cells were stained according to the manufacturers recommendations.
General experimental strategy. BLIN cell lines were removed from fibroblast monolayers, washed once and resuspended to 7.5×10^5/ml in X-VIVO 10. Two hundred μL of resuspended cells were added to 96-well flat-bottom microtiter plates (ISC Bioexpress, Kaysville, Vt.), followed by 0.5-1.0 μL of caspase inhibitors in DMSO. An identical volume of DMSO alone was added to separate wells as a vehicle control. This final DMSO concentration of 0.25-0.5% vol/vol had no adverse affect on any of the BLIN cell lines. At the indicated times the entire content of individual wells was harvested and stained in the fluorescent protocols described above.
The inventors carried out experiments to test the influence of specific amino acid substitutions on the proapoptotic activity Z-LEHD-fmk. […]
Background: Flow cytometry measures light scatter and fluorescence of single cells or particles in a stream.

The test system of a further assay is BLIN-4E cells. The assay is described as follows: Apoptosis by Annexin V staining and flow cytometry, BLIN-4E. Format: cell-based, human. The following applies: 50 μM, 18 hours. Here is the method:
(§1) FIG. 4 is a pair of graphs showing the effect of […] on various cell lines, as determined by Annexin V staining and flow cytometry. The cells included the B-cell precursor ALL cell lines […], and NALM-6, the RAMOS, RAJI, and DAUDI Burkitt lymphoma cell lines, the CCRF-CEM, JURKAT, and H9 T lymphoma cell lines, the K-562 erythroleukemia cell line, and resting or activated (i.e., CD3/CD28 cross-linked) normal human T cells. […] Flow cytometry. Quantitation of apoptotic events was conducted using a FACS Calibur (BD Immunocytometry Systems). All analyses were conducted on cells with lymphoid light scatter characteristics (i.e., low to medium forward scatter and low 90° side scatter). iii. Annexin V. […] Cells were stained according to the manufacturers recommendations.

The subject of another assay is NALM-6 cells. Kind of assay: Apoptosis by Annexin V staining and flow cytometry, NALM-6. The class given is cell-based. To be noted: NALM-6, 50 μM, 18 hours. Here is the method: as §1
In assay [1] the test system is RAJI Burkitt lymphoma cell line. The assay is described as follows: Apoptosis by Annexin V staining and flow cytometry, RAJI. Format: cell-based. To be noted: 50 μM, 18 hours. Here is the method:
as §1

Assay [2] has as its system DAUDI Burkitt lymphoma cell line. The assay is described as follows: Apoptosis by Annexin V staining and flow cytometry, DAUDI. Format: cell-based. To be noted: 50 μM, 18 hours. Here is the method:
as §1

Assay [3] concerns caspase-9-deficient cells (BLIN-4L, RAMOS). Kind of assay: Annexin V apoptosis in caspase-9 siRNA-treated BLIN-4L and RAMOS cells. Format: cell-based, human. To be noted: BLIN-4L and RAMOS electroporated with caspase-9 siRNA, 50 μM, 8 hours. Here is the method:
This technology employs a double algorithm. […] In preliminary studies using FITC-conjugated control siRNA (Dharmacon), we determined that the BLIN cell lines could be transfected to >80% efficiency by electroporation. […] BLIN-4L were then diluted into 4.8 ml of X-VIVO 10 supplemented with 10% FBS and 5 ng/ml of IL-7.
The inventors performed further studies to determine whether caspase-9 can be completely knocked out by means of RNA interference (RNAi). […] The inventors discovered that C9i induces apoptosis in caspase-9-deficient cells. BLIN-4L (FIG. 7A) and RAMOS (FIG. 7B) cells were electroporated with 8 μM SMARTpool (Dharmacon Inc.) caspase-9 siRNA or control siRNA and allowed to recover for 3 days in X-VIVO/10% FCS supplemented with 5 ng/ml IL-7 (BLIN-4L), or RPMI/10% FCS (RAMOS). After 3 days, the electroporated populations were assayed for Annexin V binding (to determine background levels of apoptosis), and then cultured in DMSO or 50 μM C9i for 8 hours. The cells were then harvested, stained with Annexin V, and analyzed by flow cytometry. […] Thus, no caspase-9 was present at all in the cells. […] Thus, C9i clearly is acting on another molecule in the cell besides just caspase-9. Also, one can conclude that caspase-9 is not necessary for C9i-induced apoptosis to occur.

The star is where a group is joined. Cbz = O=C(OCc1ccccc1)*; CH2F = FC*

As for “Z-LEHD-fmk (Cbz-LEHD-CH2F; SMILES CC(C)C[C@H](NC(=O)OCc1ccccc1)C(=O)N[C@@H](CCC(=O)O)C(=O)N[C@@H](Cc1c[nH]cn1)C(=O)N[C@@H](CC(=O)O)C(=O)CF) [C9i]”, in the assay with leukemia/lymphoma cells, the “Pro-apoptotic Activity (after 24 hours)” value is “++++”. Further, the “sensitivity (fold-increase in Annexin V+ cells vs DMSO)” value with BLIN-2 cells is given as “less sensitive than the others”; in the assay on BLIN-4E cells, “sensitive”; in the assay on NALM-6 cells, “sensitive”; in assay [1], “insensitive”; in assay [2], “insensitive”. Besides, the “induction of apoptosis in caspase-9-deficient cells (Annexin V)” value in assay [3] was “still induced apoptosis”.
